In patent US6504058B1 (priority 1997, dated 2003):

Experiments:
Botrytis cinerea = experiment: Test E: gray mold, preventive spray on cucumber seedlings, disease rating; format: in vivo, Botrytis cinerea (on cucumber seedlings); details: 200 ppm test suspension sprayed to run-off (equivalent to 500 g/ha) on cucumber seedlings; 100 = 100% disease control, 0 = no control; # = significant activity
Text: (§1) Test compounds were first dissolved in acetone in an amount equal to 3% of the final volume and then suspended at a concentration of 200 ppm in purified water containing 250 ppm of the surfactant Trem® 014 (polyhydric alcohol esters). The resulting test suspensions were then used in the following test. Spraying these 200 ppm test suspensions to the point of run-off on the test plants is the equivalent of a rate of 500 g/ha.
The test suspension was sprayed to the point of run-off on cucumber seedlings. The following day the seedlings were inoculated with a spore suspension of Botrytis cinerea (the causal agent of gray mold on many crops) and incubated in a saturated atmosphere at 20° C. for 48 h, and moved to a growth chamber at 20° C. for 5 days, after which disease ratings were made.
(§2) Results for Tests A-E are given in Table A. In the table, a rating of 100 indicates 100% disease control and a rating of 0 indicates no disease control (relative to the controls). A dash (-) indicates no test results. ND indicates disease control not determined due to phytotoxicity. # indicates significant activity.

Phytophthora infestans = format: in vivo, Phytophthora infestans (on tomato seedlings); details: 200 ppm test suspension sprayed to run-off (equivalent to 500 g/ha) on tomato seedlings; 100 = 100% disease control, 0 = no control; # = significant activity
[1] = test system: Erysiphe graminis f. sp. tritici; experiment: Test A: wheat powdery mildew, preventive spray on wheat seedlings, disease rating; format: in vivo, Erysiphe graminis f. sp. tritici (on wheat seedlings); details: 200 ppm test suspension sprayed to run-off (equivalent to 500 g/ha) on wheat seedlings; 100 = 100% disease control, 0 = no control; # = significant activity
Text: as §1
The test suspension was sprayed to the point of run-off on wheat seedlings. The following day the seedlings were inoculated with a spore dust of Erysiphe graminis f. sp. tritici, (the causal agent of wheat powdery mildew) and incubated in a growth chamber at 20° C. for 7 days, after which disease ratings were made.
as §2

Puccinia recondita = experiment: Test B: wheat leaf rust, preventive spray on wheat seedlings, disease rating; format: in vivo, Puccinia recondita (on wheat seedlings); details: 200 ppm test suspension sprayed to run-off (equivalent to 500 g/ha) on wheat seedlings; 100 = 100% disease control, 0 = no control; # = significant activity
Text: as §1
The test suspension was sprayed to the point of run-off on wheat seedlings. The following day the seedlings were inoculated with a spore suspension of Puccinia recondita (the causal agent of wheat leaf rust) and incubated in a saturated atmosphere at 20° C. for 24 h, and then moved to a growth chamber at 20° C. for 6 days, after which disease ratings were made.
as §2

Pyricularia oryzae = format: in vivo, Pyricularia oryzae (on rice seedlings); details: 200 ppm test suspension sprayed to run-off (equivalent to 500 g/ha) on rice seedlings; 100 = 100% disease control, 0 = no control; # = significant activity

Structure (SMILES) | Test E disease control rating (gray mold) (Botrytis cinerea) | Test D disease control rating (potato and tomato late blight) (Phytophthora infestans) | Test A disease control rating (wheat powdery mildew) [1] | Test B disease control rating (wheat leaf rust) (Puccinia recondita) | Test C disease control rating (rice blast) (Pyricularia oryzae)
CC(COc1ccc(Br)cc1C#N)NC(=O)C1(C)CC(C)(Cl)C1 (stereo not drawn) [compound 37] | 8% | 23% | 0 (a rating of 0 indicates no disease control (relative to the controls)) | 25% | 0 (a rating of 0 indicates no disease control (relative to the controls))
CC(COc1ccc(Br)cc1C#N)NC(=O)C1(C)CC(C)(Cl)C1 (stereo not drawn) [compound 38] | 8% | 23% | 0 (a rating of 0 indicates no disease control (relative to the controls)) | 66# % | 0 (a rating of 0 indicates no disease control (relative to the controls))
CC(COc1ccc(F)cc1C#N)NC(=O)C1(C)CC(C)(Cl)C1 (stereo not drawn) [compound 39] | 47% | 45% | 0 (a rating of 0 indicates no disease control (relative to the controls)) | 25% | 97# %
CC(COc1ccc(F)cc1C#N)NC(=O)C1(C)CC(C)(Cl)C1 (stereo not drawn) [compound 40] | 0 (a rating of 0 indicates no disease control (relative to the controls)) | 62% | 0 (a rating of 0 indicates no disease control (relative to the controls)) | 0 (a rating of 0 indicates no disease control (relative to the controls)) | 0 (a rating of 0 indicates no disease control (relative to the controls))
CC(COc1ccc(Cl)cc1C#N)NC(=O)C1(C)CC(C)(Cl)C1 (stereo not drawn) [compound 41] | 19% | 85# % | 0 (a rating of 0 indicates no disease control (relative to the controls)) | 0 (a rating of 0 indicates no disease control (relative to the controls)) | 0 (a rating of 0 indicates no disease control (relative to the controls))
CC(COc1ccc(Cl)cc1C#N)NC(=O)C1(C)CC(C)(Cl)C1 (stereo not drawn) [compound 42] | 19% | 43% | 63% | 0 (a rating of 0 indicates no disease control (relative to the controls)) | 0 (a rating of 0 indicates no disease control (relative to the controls))
CC(COc1cc(F)ccc1C#N)NC(=O)C1(C)CC(C)(Cl)C1 (stereo not drawn) [compound 43] | 19% | 20% | 0 (a rating of 0 indicates no disease control (relative to the controls)) | 0 (a rating of 0 indicates no disease control (relative to the controls)) | 0 (a rating of 0 indicates no disease control (relative to the controls))
CC(COc1cc(F)ccc1C#N)NC(=O)C1(C)CC(C)(Cl)C1 (stereo not drawn) [compound 44] | 84% | 20% | 0 (a rating of 0 indicates no disease control (relative to the controls)) | 0 (a rating of 0 indicates no disease control (relative to the controls)) | 94# %
CC(COc1cc(Cl)ccc1C#N)NC(=O)C1(C)CC(C)(Cl)C1 (stereo not drawn) [compound 45] | 0 (a rating of 0 indicates no disease control (relative to the controls)) | 61% | 0 (a rating of 0 indicates no disease control (relative to the controls)) | 0 (a rating of 0 indicates no disease control (relative to the controls)) | 99# %
CC(COc1cc(Cl)ccc1C#N)NC(=O)C1(C)CC(C)(Cl)C1 (stereo not drawn) [compound 46] | 0 (a rating of 0 indicates no disease control (relative to the controls)) | 43% | 63% | 28% | 91# %
CC(COc1cc(Br)ccc1C#N)NC(=O)C1(C)CC(C)(Cl)C1 (stereo not drawn) [compound 47] | 0 (a rating of 0 indicates no disease control (relative to the controls)) | 26% | 97# % | 25% | 94# %
CC(COc1cc(Br)ccc1C#N)NC(=O)C1(C)CC(C)(Cl)C1 (stereo not drawn) [compound 48] | 0 (a rating of 0 indicates no disease control (relative to the controls)) | 47% | 96# % | 85# % | 99# %
CC(COc1cc(F)ccc1Cl)NC(=O)C1(C)CC(C)(Cl)C1 (stereo not drawn) [compound 49] | 0 (a rating of 0 indicates no disease control (relative to the controls)) | 0 (a rating of 0 indicates no disease control (relative to the controls)) | 98# % | 0 (a rating of 0 indicates no disease control (relative to the controls)) | 100# (a rating of 100 indicates 100% disease control)
CC(COc1cc(F)ccc1Cl)NC(=O)C1(C)CC(C)(Cl)C1 (stereo not drawn) [compound 50] | 0 (a rating of 0 indicates no disease control (relative to the controls)) | 0 (a rating of 0 indicates no disease control (relative to the controls)) | 54% | 0 (a rating of 0 indicates no disease control (relative to the controls)) | 94# %
CC(COc1cc(Cl)ccc1F)NC(=O)C1(C)CC(C)(Cl)C1 (stereo not drawn) [compound 51] | 0 (a rating of 0 indicates no disease control (relative to the controls)) | 0 (a rating of 0 indicates no disease control (relative to the controls)) | 83# % | 0 (a rating of 0 indicates no disease control (relative to the controls)) | 100# (a rating of 100 indicates 100% disease control)
CC(COc1cc(Cl)ccc1F)NC(=O)C1(C)CC(C)(Cl)C1 (stereo not drawn) [compound 52] | 0 (a rating of 0 indicates no disease control (relative to the controls)) | 0 (a rating of 0 indicates no disease control (relative to the controls)) | 83# % | 0 (a rating of 0 indicates no disease control (relative to the controls)) | 100# (a rating of 100 indicates 100% disease control)
CC(COc1cc(Cl)ccc1F)NC(=O)C1(C)CC(C)(Br)C1 (stereo not drawn) [compound 53] | 0 (a rating of 0 indicates no disease control (relative to the controls)) | 0 (a rating of 0 indicates no disease control (relative to the controls)) | 100# (a rating of 100 indicates 100% disease control) | 0 (a rating of 0 indicates no disease control (relative to the controls)) | 100# (a rating of 100 indicates 100% disease control)
CC(COc1cc(Cl)ccc1F)NC(=O)C1(C)CC(C)(Br)C1 (stereo not drawn) [compound 54] | 0 (a rating of 0 indicates no disease control (relative to the controls)) | 0 (a rating of 0 indicates no disease control (relative to the controls)) | 24% | 0 (a rating of 0 indicates no disease control (relative to the controls)) | 97# %
